Measurements taken from patent US12534455B2, “Phthalazine derivatives as P2X3 inhibitors” (CHIESI FARMACEUTICI S.P.A., priority 2020, dated 2026).
Read-outs that look alike come from different tables or passages of the source.

Tests used:
h P2X3 = molecular target: T1, h P2X3 (Homo sapiens, UniProt P56373); test: In vitro electrophysiology assay for P2X3 (Sophion Qube automated patch-clamp, α,β-MeATP agonist); assay type: cell-based; conditions: for h P2X3 (pIC50 range of activity): Table 3
T1 sequence (P56373 1-397): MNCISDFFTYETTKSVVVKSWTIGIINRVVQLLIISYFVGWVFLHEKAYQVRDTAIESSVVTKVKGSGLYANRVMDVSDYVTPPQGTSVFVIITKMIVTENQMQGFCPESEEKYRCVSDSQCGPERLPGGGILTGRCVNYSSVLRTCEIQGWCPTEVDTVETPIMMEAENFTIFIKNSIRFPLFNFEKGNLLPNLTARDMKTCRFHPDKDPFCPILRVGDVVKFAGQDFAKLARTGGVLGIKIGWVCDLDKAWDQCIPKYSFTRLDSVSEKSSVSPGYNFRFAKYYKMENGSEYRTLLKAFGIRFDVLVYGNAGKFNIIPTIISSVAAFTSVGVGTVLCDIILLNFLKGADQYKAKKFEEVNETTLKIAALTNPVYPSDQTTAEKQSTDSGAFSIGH
Method: Pharmacological Activity of the Compounds of the Invention. In Vitro Electrophysiology Assay for P2X3
Cells expressing P2X3 receptors were grown according to standard practice and maintained at 37° C. in a 5% humidified CO2 atmosphere. The cells were seeded into T175 flask 2 days prior to the day of the assay and dissociated from the flasks using TrypLE when grown to confluence of 80-90%. The dissociated cells were resuspended in serum free media at a cell density of 3×10^6 cells/ml and loaded onto the Sophion Qube automated patch-clamp system. The extracellular assay buffer contained 145 mM NaCl, 4 mM KCl, 2 mM CaCl2, 1 mM MgCl2, 10 mM HEPES, and 10 mM glucose at pH 7.4. The intracellular assay solution contained 140 mM CsF, 10 mM NaCl, 10 mM EGTA, 10 mM HEPES at pH 7.2. Agonist stock solutions were prepared in H2O and diluted in bath solution prior to use. All antagonists were prepared as 10 mM stock solutions in DMSO and diluted in bath solution prior to use. All experiments were performed under the whole-cell patch clamp configuration at room temperature with 384 individual cells being voltage clamped at −60 mV simultaneously on the Sophion Qube instrument. Two baseline responses were established with the application of α,β-MeATP (800 nM), with the subsequent agonist applications being washed out using extracellular assay buffer containing 0.5 U/ml apyrase. Following the second agonist application, antagonist was incubated in the absence of α,β-MeATP for 10 minutes. After antagonist preincubation, 800 nM α,β-MeATP and antagonist were co-administered to determine the inhibitory effect of the antagonist. One concentration of an antagonist was assessed against a single cell, with different concentrations of the antagonist applied to other cells on the 384 recording substrate. The control P2X3 current amplitude was taken from the peak current amplitude from the second agonist response prior to preincubation with antagonist. The peak P2X3 current amplitude in the presence of antagonist was used to calculate the inhibitory effect at each concentration of the antagonist according to the following equation: Percentage inhibition of P2X3=(P2X3 control peak amplitude-P2X3 antagonist peak amplitude)/P2X3 control peak amplitude)*100
Concentration-response curves were constructed from ten different concentrations with each concentration of antagonist tested on at least two individual cells. The concentration of the antagonist to inhibit P2X3 current by 50% (IC50) was determined by fitting the data with the following equation: Y=a+[(b−a)/(1+10^((log c−x)d)]
Where ‘a’ is minimum response, ‘b’ is maximum response, ‘c’ is IC50 and ‘d’ is Hill slope.
The results for individual compounds are provided below in Table 2 and are expressed as range of activity.

h P2X2/3 = molecular target: T2, h P2X2/3 (Homo sapiens, UniProt P56373+Q9UBL9); test: In vitro electrophysiology assay for P2X2/3 (same protocol, 10 μM ATP agonist); assay type: cell-based; conditions: Table 3; 10 μM ATP as agonist, mean current amplitude seven seconds after agonist; read-out: h P2X2/3 (pIC50 range of activity) (converted)
T2 construct: same protocol as the P2X3 assay
T2 sequence (P56373 1-397): T1 sequence (P56373 1-397)
T2 sequence (Q9UBL9 1-471): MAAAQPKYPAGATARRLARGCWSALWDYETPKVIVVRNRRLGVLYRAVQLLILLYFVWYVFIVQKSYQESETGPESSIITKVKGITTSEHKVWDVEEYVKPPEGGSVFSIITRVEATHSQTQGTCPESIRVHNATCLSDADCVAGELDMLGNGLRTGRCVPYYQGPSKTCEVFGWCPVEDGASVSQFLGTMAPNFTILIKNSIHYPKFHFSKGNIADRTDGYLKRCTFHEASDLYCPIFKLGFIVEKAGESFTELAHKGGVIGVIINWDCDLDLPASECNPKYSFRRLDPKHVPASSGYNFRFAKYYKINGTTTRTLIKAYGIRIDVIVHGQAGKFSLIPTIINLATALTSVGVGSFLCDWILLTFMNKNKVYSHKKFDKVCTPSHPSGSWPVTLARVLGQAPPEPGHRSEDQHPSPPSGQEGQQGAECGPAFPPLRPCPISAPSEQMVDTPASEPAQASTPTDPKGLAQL
Method: Cells expressing P2X3 receptors were grown according to standard practice and maintained at 37° C. in a 5% humidified CO2 atmosphere. The cells were seeded into T175 flask 2 days prior to the day of the assay and dissociated from the flasks using TrypLE when grown to confluence of 80-90%. The dissociated cells were resuspended in serum free media at a cell density of 3×10^6 cells/ml and loaded onto the Sophion Qube automated patch-clamp system. The extracellular assay buffer contained 145 mM NaCl, 4 mM KCl, 2 mM CaCl2, 1 mM MgCl2, 10 mM HEPES, and 10 mM glucose at pH 7.4. The intracellular assay solution contained 140 mM CsF, 10 mM NaCl, 10 mM EGTA, 10 mM HEPES at pH 7.2. Agonist stock solutions were prepared in H2O and diluted in bath solution prior to use. All antagonists were prepared as 10 mM stock solutions in DMSO and diluted in bath solution prior to use. […] One concentration of an antagonist was assessed against a single cell, with different concentrations of the antagonist applied to other cells on the 384 recording substrate. […]
The same assay protocol was used for the P2X2/3 assay as the P2X3 assay with two modifications: 1) 10 μM ATP was used as the agonist; and 2) the mean current amplitude was measured seven seconds after the application of agonist.

[1] = Table 2, whole-cell patch clamp, 800 nM α,β-MeATP, 10 min antagonist preincubation, read-out: h P2X3 (pIC50 range of activity) (converted)
[2] = whole-cell patch clamp, 800 nM α,β-MeATP

SMILES | IC50 (h P2X3; [1]) | other results
Cc1ccc(C(C)Nc2nnc(C3CC3)c3ccc(-c4ccn(C)n4)cc23)nn1 (racemic) [Example 16, 4-Cyclopropyl-7-(1-methyl-1H-pyrazol-3-yl)-N-(1-(6-methylpyridazin-3-yl)ethyl)phthalazin-1-amine] | 316 to 3160 nM | –
Cc1ccc(CNc2nccc3ccc(-c4ccc(F)cc4)cc23)nn1 [Comparative Example A, reference compound] | – | IC50 (h P2X3; in vitro assay on P2X3 as described above, read-out: activity on receptor P2X3 expressed as pIC50 (converted)): > 3160 nM
Cc1cnc(-c2ccc3c(C4CCOCC4)nnc(NCc4ccc(C)nn4)c3c2)nc1 [Example 1, N-((6-Methylpyridazin-3-yl)methyl)-7-(5-methylpyrimidin-2-yl)-4-(tetrahydro-2H-pyran-4-yl)phthalazin-1-amine] | 316 to 3160 nM | IC50 (h P2X2/3): 3160 to 31600 nM; h P2X3 (pIC50 range of activity) (h P2X3; [2]): ++ (++: 6.5<pIC50 h P2X3 or h P2X2/3>5.5)
Cc1ccc(CNc2nncc3ccc(-c4ccc(F)cc4)cc23)nn1 [Example 3, 7-(4-Fluorophenyl)-N-((6-methylpyridazin-3-yl)methyl)phthalazin-1-amine] | < 316 nM | –
Cc1ccc([C@@H](C)Nc2nnc(C3CC3)c3ccc(-c4ccc(F)cc4)cc23)nn1 [Example 5, (R)-4-Cyclopropyl-7-(4-fluorophenyl)-N-(1-(6-methylpyridazin-3-yl)ethyl)phthalazin-1-amine] | < 316 nM | IC50 (h P2X2/3): 316 to 3160 nM; h P2X3 (pIC50 range of activity) (h P2X3; [2]): +++ (+++: pIC50 h P2X3 or h P2X2/3>6.5)
C[C@@H](Nc1nnc(C2CCOCC2)c2ccc(-c3ccc(F)cc3)cc12)c1cnc(C(F)(F)F)nc1 [Example 6, (R)-7-(4-Fluorophenyl)-4-(tetrahydro-2H-pyran-4-yl)-N-(1-(2-(trifluoromethyl)pyrimidin-5-yl)ethyl)phthalazin-1-amine] | 316 to 3160 nM | –
Cc1ccc([C@@H](C)Nc2nnc(C3CCOCC3)c3ccc(-c4ccc(F)cc4)cc23)nn1 [Example 7, (R)-7-(4-Fluorophenyl)-N-(1-(6-methylpyridazin-3-yl)ethyl)-4-(tetrahydro-2H-pyran-4-yl)phthalazin-1-amine] | < 316 nM | –
Cc1ccc(CNc2nnc(CC3CCOCC3)c3ccc(-c4ccc(F)cn4)cc23)nn1 [Example 10, 7-(5-Fluoropyridin-2-yl)-N-((6-methylpyridazin-3-yl)methyl)-4-((tetrahydro-2H-pyran-4-yl)methyl)phthalazin-1-amine] | 316 to 3160 nM | –
Cc1cnc(-c2ccc3c(CC4CCOCC4)nnc(NCc4nc(C(F)(F)F)no4)c3c2)s1 [Example 14, 7-(5-Methylthiazol-2-yl)-4-((tetrahydro-2H-pyran-4-yl)methyl)-N-((3-(trifluoromethyl)-1,2,4-oxadiazol-5-yl)methyl)phthalazin-1-amine] | 316 to 3160 nM | –
Cc1ccc(C(C)Nc2nnc(C3CC3)c3ccc(-c4ccn(C)n4)cc23)nn1 (stereo not drawn) [Example 19, 4-Cyclopropyl-7-(1-methyl-1H-pyrazol-3-yl)-N-(1-(6-methylpyridazin-3-yl)ethyl)phthalazin-1-amine] | 316 to 3160 nM | –

The next lines start with results.

IC50 (h P2X3; [1]) | SMILES | other results
316 to 3160 nM | Cc1ccc(C(C)Nc2nnc(C3CCOCC3)c3ccc(-c4ccc(F)cn4)cc23)nn1 (single isomer, unassigned) [Example 11, 7-(5-Fluoropyridin-2-yl)-N-(1-(6-methylpyridazin-3-yl)ethyl)-4-(tetrahydro-2H-pyran-4-yl)phthalazin-1-amine] | –
316 to 3160 nM | Fc1ccc(-c2ccc3cnnc(NCC4CC4)c3c2)cc1 [Example 2, N-(Cyclopropylmethyl)-7-(4-fluorophenyl)phthalazin-1-amine] | –
316 to 3160 nM | C[C@@H](Nc1nnc(C2CC2)c2ccc(-c3ccc(F)cc3)cc12)c1cnc(C(F)(F)F)nc1 [Example 4, (R)-4-Cyclopropyl-7-(4-fluorophenyl)-N-(1-(2-(trifluoromethyl)pyrimidin-5-yl)ethyl)phthalazin-1-amine] | –
316 to 3160 nM | Cc1ccc(CNc2nnc(C3CCOCC3)c3ccc(-c4ccc(F)cn4)cc23)nn1 [Example 9, 7-(5-Fluoropyridin-2-yl)-N-((6-methylpyridazin-3-yl)methyl)-4-(tetrahydro-2H-pyran-4-yl)phthalazin-1-amine] | –
< 316 nM | Cc1ccc(CNc2nncc3ccc(-c4ncc(C)s4)cc23)nn1 [Example 13, N-[(6-Methylpyridazin-3-yl)methyl]-7-(5-methylthiazol-2-yl)phthalazin-1-amine] | –
316 to 3160 nM | Cc1ccc(CNc2nnc(CC3CCOCC3)c3ccc(-c4ncc(C)s4)cc23)nn1 [Example 15, N-((6-Methylpyridazin-3-yl)methyl)-7-(5-methylthiazol-2-yl)-4-((tetrahydro-2H-pyran-4-yl)methyl)phthalazin-1-amine] | –
316 to 3160 nM | Cc1ccc(C(C)Nc2nnc(C3CCOCC3)c3ccc(-c4ccn(C)n4)cc23)nn1 (stereo not drawn) [Example 17, 7-(1-Methylpyrazol-3-yl)-N-[1-(6-methylpyridazin-3-yl)ethyl]-4-tetrahydropyran-4-yl-phthalazin-1-amine] | –
